Source: the CheMixHub viscosity set
Values joined by “and” are separate entries in the source; they are usually repeats but may differ in a detail not shown here. Identical values can stand only once.

Legend:
[1] = xn = mol fraction of the nth substance listed

CCCCCCCBr
101 kPa
Conditions	viscosity [mPa·s]
293.15 K	1.205
303.15 K	1.05
313.15 K	0.925
323.15 K	0.82

CC(O)=S
Conditions	viscosity
298.1 K, 101 kPa	0.687 mPa·s and 0.687 mPa·s

CCN(C=O)CC
viscosity [mPa·s]
Conditions	298.15 K	298.16 K	308.15 K	323.15 K
101 kPa	1.25	1.139	1.03	0.86
101.33 kPa	1.254	–	–	0.851

COCCO
viscosity
Conditions	293.15 K	298.15 K	303.15 K	308.15 K	313.15 K	318.15 K	323.15 K
100 kPa	–	1.649 mPa·s and 1.563 mPa·s	1.457 mPa·s	1.292 mPa·s	1.15 mPa·s and 1.188 mPa·s	–	–
101 kPa	1.78 mPa·s	–	–	–	–	–	0.931 mPa·s and 0.9856 mPa·s and 0.965 mPa·s
101.3 kPa	–	1.522 mPa·s and 1.695 mPa·s	1.381 mPa·s and 1.525 mPa·s and 1.376 mPa·s	1.242 mPa·s and 1.368 mPa·s	1.151 mPa·s and 1.155 mPa·s	–	0.9746 mPa·s
101.33 kPa	–	1.552 mPa·s	1.476 mPa·s	–	1.2 mPa·s and 1.189 mPa·s	1.098 mPa·s and 1.04 mPa·s and 1.042 mPa·s	–

C1CCNCC1
101 kPa
Conditions	viscosity [mPa·s]
298.15 K	1.31
303.15 K	1.21
323.15 K	0.757

CC(CC(C)(C)C)CC(C)(C)CC(C)(C)C (stereo not given)
viscosity
Conditions	293.15 K	298.15 K	303.15 K	313.15 K	323.15 K
100 kPa	3.64 mPa·s and 3.64 mPa·s and 3.782 mPa·s (2×)	–	2.984 mPa·s	2.43 mPa·s and 2.43 mPa·s and 2.411 mPa·s (2×)	2.01 mPa·s and 2.01 mPa·s and 2.018 mPa·s (2×)
101.33 kPa	–	3.343 mPa·s	–	–	–

CC(=O)OC(C)C
101 kPa
Conditions	viscosity
298.15 K	0.49 mPa·s
308.15 K	0.4342 mPa·s and 0.4323 mPa·s

CCCC(=O)O
viscosity
Conditions	293.15 K	303.15 K	313.15 K	323.15 K
101 kPa	1.778 mPa·s and 1.54 mPa·s and 1.78 mPa·s	1.296 mPa·s and 1.331 mPa·s and 1.33 mPa·s	1.12 mPa·s	0.9885 mPa·s
101.33 kPa	1.623 mPa·s	–	1.184 mPa·s	–

CCCCNCCCC
viscosity
Conditions	293.15 K	298.15 K	303.15 K	308.15 K	313.15 K	318.15 K	323.15 K
100 kPa	–	0.81 mPa·s	0.75 mPa·s	0.71 mPa·s	–	–	–
101 kPa	–	–	0.764 mPa·s and 0.7734 mPa·s	0.7184 mPa·s and 0.6757 mPa·s	0.6692 mPa·s	0.6249 mPa·s	0.5859 mPa·s
101.33 kPa	0.85 mPa·s	0.81 mPa·s	0.73 mPa·s	0.698 mPa·s	0.64 mPa·s	0.611 mPa·s	0.56 mPa·s

CCCCCCCC[n+]1ccc2ccccc2c1.O=S(=O)([N-]S(=O)(=O)C(F)(F)F)C(F)(F)F
101 kPa
Conditions	viscosity
298.15 K	369.3 mPa·s and 369.3 mPa·s
308.15 K	191 mPa·s and 191 mPa·s
318.15 K	108.7 mPa·s and 108.7 mPa·s

CC(=O)[O-].CC[NH+](CC)CC
101 kPa
Conditions	viscosity
303.15 K	19.6 mPa·s and 19.64 mPa·s
308.15 K	16.13 mPa·s and 16.13 mPa·s
313.15 K	14.81 mPa·s

CCC[N+]1(C)CCCC1.O=S(=O)([N-]S(=O)(=O)C(F)(F)F)C(F)(F)F
viscosity [mPa·s]
Conditions	293.15 K	298.15 K	303.15 K	308.15 K	313.15 K	318.15 K	323.15 K
101 kPa	–	–	–	–	34.4	–	–
101.3 kPa	76.4	61.2	49.8	41.1	34.4	29.2	25

C1CC[C@H]2CCCC[C@H]2C1
viscosity [mPa·s]
Conditions	293.15 K	303.15 K	313.15 K	323.15 K
100 kPa	–	2.704	2.214	1.861
101 kPa	3.337	2.444	–	–
101.3 kPa	3.361	2.641	–	–

CCCCBr
101 kPa
Conditions	viscosity
295.95 K	0.6116 mPa·s
298.15 K	0.606 mPa·s
303.45 K	0.5621 mPa·s
308.15 K	0.552 mPa·s and 0.5235 mPa·s
313.25 K	0.5057 mPa·s
318.15 K	0.502 mPa·s
323.15 K	0.476 mPa·s

CCOC(=O)C(=O)OCC
101 kPa
Conditions	viscosity [mPa·s]
313.15 K	1.361
323.15 K	1.154

CC[N+](CC)(CC)CC.[OH-]
viscosity [mPa·s]
Conditions	298.15 K	303.15 K	308.15 K	313.15 K
100 kPa	4.94	4.72	4.43	4.27
101 kPa	4.94	4.72	4.43	4.27

C#CC(C)(C)O
101.32 kPa
Conditions	viscosity [mPa·s]
308.15 K	2.09
313.15 K	1.775
318.15 K	1.551
323.15 K	1.347

CCCCBr + CC(C)(C)O
viscosity [mPa·s], [1], 101.33 kPa
Conditions	x2 = 0.0988	x2 = 0.197	x2 = 0.3014	x2 = 0.4101	x2 = 0.5017	x2 = 0.5982	x2 = 0.7029	x2 = 0.7982	x2 = 0.8931
298.15 K	0.597	0.612	0.643	0.692	0.798	0.926	1.148	1.509	2.232
303.15 K	0.564	0.576	0.602	0.642	0.736	0.839	1.018	1.302	1.841
308.15 K	0.534	0.54	0.563	0.598	0.679	0.763	0.909	1.134	1.543
313.15 K	0.508	0.511	0.529	0.557	0.632	0.7	0.817	0.995	1.311
318.15 K	0.494	0.482	0.497	0.521	0.581	0.638	0.737	0.882	1.127

CCCC(=O)O + c1ccncc1
[1], 293.15 K, 101 kPa
Conditions	viscosity [mPa·s]
x2 = 0.152	3.474
x2 = 0.256	3.89
x2 = 0.429	3.36
x2 = 0.528	2.674
x2 = 0.642	1.996
x2 = 0.818	1.29
